According to article PMC6271944 (Molecules, 2014):

Key:
[1] = biological target: T1, CYP3A4 (Homo sapiens, UniProt P08684); experiment: CYP inhibition in human liver microsomes, substrate cocktail, LC-MS/MS (midazolam); format: in vitro ADME; conditions: metabolite 1-hydroxymidazolam, read-out: IC50 for HLM, CYP3A4
T1 construct: Pooled human liver microsomes (HLM, LOT 32556) were purchased from BD Gentest Corporation; tissue BD Gentest Corporation LOT 32556; host or cells: pooled human liver microsomes
T1 sequence (P08684 whole entry): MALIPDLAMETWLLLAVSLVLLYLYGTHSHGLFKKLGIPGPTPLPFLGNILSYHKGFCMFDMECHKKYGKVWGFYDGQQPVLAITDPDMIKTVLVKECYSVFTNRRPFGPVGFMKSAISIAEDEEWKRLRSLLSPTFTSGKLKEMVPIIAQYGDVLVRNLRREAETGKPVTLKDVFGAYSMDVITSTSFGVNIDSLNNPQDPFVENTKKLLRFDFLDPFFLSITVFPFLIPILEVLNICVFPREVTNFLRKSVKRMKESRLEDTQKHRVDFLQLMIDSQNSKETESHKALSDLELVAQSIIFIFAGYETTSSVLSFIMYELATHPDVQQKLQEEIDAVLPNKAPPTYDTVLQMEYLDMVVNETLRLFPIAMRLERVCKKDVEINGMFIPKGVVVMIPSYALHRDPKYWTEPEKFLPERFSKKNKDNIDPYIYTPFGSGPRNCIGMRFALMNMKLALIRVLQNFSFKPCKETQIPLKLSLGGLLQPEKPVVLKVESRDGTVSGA
Text: (§1) Positive controls (furafyline for CYP1A2, montelukast for CYP2C8, sulfaphenazole for CYP2C9, S-(+)-N-3-benzylnirvanol for CYP2C19, quinidine for CYP2D6, ketoconazole for CYP3A4) and specific substrates (phenacetin for CYP1A2, paclitaxel for CYP2C8, diclofenac for CYP2C9, S-mephenytoin for CYP2C19, dextromethorphan for CYP2D6, midazolam for CYP3A4) are consistent with our previous papers. The substrates were used at concentrations approximately equal to their respective Michaelis-Menten constant (Km) values: 10 μM phenacetin, 5 μM paclitaxel, 5 μM diclofenac, 200 μM S-mephenytoin, 5 μM dextromethorphan, and 2 μM midazolam. NADP^+ was added after a 15 min preincubation of all other components at 37 °C. After a given incubation time (30 min), the reactions were terminated by addition of 60 μL ice-cold acetonitrile containing gemfibrozil and buspirone as internal standards. Incubation samples were stored at −80 °C until used in liquid chromatography-tandem mass spectrometry (LC-MS/MS) analysis. The mixture was centrifuged at 3,500 rpm for 5 min. The supernatant was mixed with equal volume of a 1:1 mixture of methanol and water and 20 μL of the final mixture was used for LC-MS/ MS analysis. […]
(§2) The CYP inhibition potential were evaluated by measuring the formation of one or more metabolites of the test substrates. […]

[2] = biological target: T2, CYP1A2 (Rattus norvegicus, UniProt P04799); conditions: 30 mg/kg; cited from earlier work
T2 sequence (P04799 1-513): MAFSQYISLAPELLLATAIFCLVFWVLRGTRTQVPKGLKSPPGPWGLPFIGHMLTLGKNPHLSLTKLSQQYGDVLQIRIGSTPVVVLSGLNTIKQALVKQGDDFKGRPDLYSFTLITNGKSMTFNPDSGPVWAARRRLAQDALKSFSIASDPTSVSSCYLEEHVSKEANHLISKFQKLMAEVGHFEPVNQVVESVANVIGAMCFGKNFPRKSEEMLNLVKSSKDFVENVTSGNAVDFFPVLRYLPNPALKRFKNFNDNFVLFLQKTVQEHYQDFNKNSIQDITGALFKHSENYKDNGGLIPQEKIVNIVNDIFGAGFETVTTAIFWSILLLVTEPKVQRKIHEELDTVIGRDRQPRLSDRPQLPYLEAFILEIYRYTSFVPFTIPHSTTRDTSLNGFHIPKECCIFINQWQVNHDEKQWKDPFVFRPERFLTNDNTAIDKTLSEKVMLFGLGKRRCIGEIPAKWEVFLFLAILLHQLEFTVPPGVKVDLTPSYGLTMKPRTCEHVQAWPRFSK

[3] = biological target: T3, CYP2D6 (Homo sapiens, UniProt P10635); experiment: CYP inhibition in human liver microsomes, substrate cocktail, LC-MS/MS (dextromethorphan); format: in vitro ADME; conditions: metabolite dextrorphan, read-out: IC50 for HLM, CYP2D6
T3 construct: Pooled human liver microsomes (HLM, LOT 32556) were purchased from BD Gentest Corporation; tissue BD Gentest Corporation LOT 32556; host or cells: pooled human liver microsomes
T3 sequence (P10635 whole entry): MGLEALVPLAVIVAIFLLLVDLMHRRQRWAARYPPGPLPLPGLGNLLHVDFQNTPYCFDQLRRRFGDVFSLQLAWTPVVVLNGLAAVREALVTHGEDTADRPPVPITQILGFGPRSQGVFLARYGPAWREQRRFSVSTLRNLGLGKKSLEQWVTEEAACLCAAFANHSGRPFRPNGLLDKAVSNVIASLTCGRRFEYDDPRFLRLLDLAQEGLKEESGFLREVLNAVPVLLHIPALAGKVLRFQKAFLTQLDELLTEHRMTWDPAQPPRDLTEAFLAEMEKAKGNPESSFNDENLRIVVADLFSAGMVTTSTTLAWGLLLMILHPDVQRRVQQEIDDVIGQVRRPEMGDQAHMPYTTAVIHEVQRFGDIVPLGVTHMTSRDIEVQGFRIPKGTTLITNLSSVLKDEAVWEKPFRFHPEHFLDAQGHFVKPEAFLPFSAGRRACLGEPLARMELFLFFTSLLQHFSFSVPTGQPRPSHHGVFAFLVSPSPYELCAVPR
Text: as §1, §2

[4] = biological target: T4, CYP2C9 (Homo sapiens, UniProt P11712); experiment: CYP inhibition in human liver microsomes, substrate cocktail, LC-MS/MS (diclofenac); format: in vitro ADME; conditions: metabolite 4-hydroxydiclofenac, read-out: IC50 for HLM, CYP2C9
T4 construct: Pooled human liver microsomes (HLM, LOT 32556) were purchased from BD Gentest Corporation; tissue BD Gentest Corporation LOT 32556; host or cells: pooled human liver microsomes
T4 sequence (P11712 whole entry): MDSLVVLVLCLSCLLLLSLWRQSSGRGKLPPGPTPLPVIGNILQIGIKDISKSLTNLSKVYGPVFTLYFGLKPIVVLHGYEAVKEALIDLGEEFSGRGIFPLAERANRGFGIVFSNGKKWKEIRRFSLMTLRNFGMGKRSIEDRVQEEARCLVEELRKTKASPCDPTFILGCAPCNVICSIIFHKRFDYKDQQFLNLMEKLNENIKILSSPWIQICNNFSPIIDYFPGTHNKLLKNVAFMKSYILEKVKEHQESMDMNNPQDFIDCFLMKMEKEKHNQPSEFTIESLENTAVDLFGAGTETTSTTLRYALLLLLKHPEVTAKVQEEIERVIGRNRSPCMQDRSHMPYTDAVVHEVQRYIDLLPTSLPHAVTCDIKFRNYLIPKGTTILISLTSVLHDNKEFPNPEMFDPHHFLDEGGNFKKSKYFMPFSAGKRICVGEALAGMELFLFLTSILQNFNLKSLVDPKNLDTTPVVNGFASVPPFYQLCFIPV
Text: as §1, §2

[5] = biological target: T5, CYP2D4 (Rattus norvegicus, UniProt Q64680); experiment: CYP inhibition in rat liver microsomes, substrate cocktail, LC-MS/MS (dextromethorphan); format: in vitro ADME; conditions: pH 7.4, probe dextromethorphan 5 μM, read-out: IC50 for RLM, CYP2D4 (table row CYP2D6)
T5 sequence (Q64680 1-500): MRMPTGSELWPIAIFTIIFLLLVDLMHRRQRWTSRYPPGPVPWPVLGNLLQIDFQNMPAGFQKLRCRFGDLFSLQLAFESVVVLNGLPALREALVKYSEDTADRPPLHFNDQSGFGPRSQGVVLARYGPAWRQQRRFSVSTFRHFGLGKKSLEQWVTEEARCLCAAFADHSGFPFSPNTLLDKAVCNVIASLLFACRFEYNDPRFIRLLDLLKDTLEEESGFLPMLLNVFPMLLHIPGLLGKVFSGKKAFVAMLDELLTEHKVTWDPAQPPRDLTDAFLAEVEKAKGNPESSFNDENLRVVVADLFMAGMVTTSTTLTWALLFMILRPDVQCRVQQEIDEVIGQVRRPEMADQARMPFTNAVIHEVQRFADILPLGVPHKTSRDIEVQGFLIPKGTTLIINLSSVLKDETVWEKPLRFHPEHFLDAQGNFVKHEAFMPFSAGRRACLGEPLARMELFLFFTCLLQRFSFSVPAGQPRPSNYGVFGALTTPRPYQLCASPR
Text: as §1, §2

Q: Which results are given for `O=C(O)[C@H]1O[C@@H](Oc2cc3oc(-c4ccc(O)cc4)cc(=O)c3c(O)c2O)[C@H](O)[C@@H](O)[C@@H]1O` [scutellarin, Scutellarin]?
A: IC50 [1]: > 100 µM; inhibition of CYP1A2 activity in whole animal studies [2]: weakly inhibited; IC50 [3]: > 100 µM; IC50 [4]: > 100 µM; IC50 at 30 min [5]: > 100 µM
